# Test results from patent US20250163104A1, “MACROCYCLIC IMMUNOMODULATORS” (priority 2021, published 2025).
# Where a SMILES comes first, the peptide text is derived from it. Bridges are numbered along the chain shown (N, C = ends). [ ]: non-standard residue; d: D form. The star is where a group is joined. ξ: configuration not given here. Phe(4-COOH) = N[C@@H](Cc1ccc(C(=O)O)cc1)C(=O)O; Bip = N[C@@H](Cc1ccc(-c2ccccc2)cc1)C(=O)O; Phe(3-Me) = Cc1cccc(C[C@H](N)C(=O)O)c1; Val(3-OH) = CC(C)(O)[C@H](N)C(=O)O; 3Pal = N[C@@H](Cc1cccnc1)C(=O)O; 4Pal = N[C@@H](Cc1ccncc1)C(=O)O; Cha = N[C@@H](CC1CCCCC1)C(=O)O; Cit = NC(=O)NCCC[C@H](N)C(=O)O; Thr(3ξ) = CC(O)[C@H](N)C(=O)O; Carboxymethyl = O=C(O)C*; Nle = CCCC[C@H](N)C(=O)O; Orn = NCCC[C@H](N)C(=O)O; Pra = C#CC[C@H](N)C(=O)O; dDap = NC[C@@H](N)C(=O)O; Dab = NCC[C@H](N)C(=O)O; Dap = NC[C@H](N)C(=O)O
# Biological target: T1, human PD-1 / PD-L1-Ig binding on Jurkat cell line over-expressing human PD-1 (Jurkat-PD-1) (Homo sapiens, UniProt Q15116)
# T1 construct: expressed in transfected cells; host or cells: Jurkat
# T1 sequence (Q15116 25-288): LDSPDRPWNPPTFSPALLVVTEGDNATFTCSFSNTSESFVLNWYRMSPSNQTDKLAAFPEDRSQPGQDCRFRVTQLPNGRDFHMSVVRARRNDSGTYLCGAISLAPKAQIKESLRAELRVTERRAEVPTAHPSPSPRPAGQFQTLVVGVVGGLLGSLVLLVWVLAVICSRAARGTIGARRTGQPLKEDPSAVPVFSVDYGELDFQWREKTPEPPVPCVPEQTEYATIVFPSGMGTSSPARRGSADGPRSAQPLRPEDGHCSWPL
# Assay: Jurkat-PD-1 Cell Binding High-Content Screening Assay (CBA)
# Assay type: cell-based
# Details: Jurkat HPD1_PDL1 IC50, Jurkat-PD-1 cells, PE-labeled PD-L1-Ig 20 nM final
# Method in brief: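 Binding of fluorescent PD-L1-Ig (phycoerythrin linked via the Ig tag, 20 nM final) to PD-1-overexpressing Jurkat cells was imaged after a 2 h, 37° C compound pretreatment and 1 hour ligand incubation.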
row,SMILES,IC50
1,CC(C)C[C@@H]1NC(=O)[C@H](Cc2c[nH]c3ccccc23)NC(=O)[C@H](CC(=O)O)NC(=O)[C@H](Cc2ccc(OCC(=O)O)cc2)NC(=O)[C@H](CN)NC(=O)CSC[C@@H](C(=O)NCC(N)=O)NC(=O)[C@H](CO)NC(=O)[C@H](C(C)C)NC(=O)[C@H](CC(C)C)NC(=O)[C@H](CC(N)=O)NC(=O)[C@@H](CC(C)C)NC(=O)[C@H](CCN)NC(=O)[C@H](C(C)C)NC(=O)[C@H](Cc2ccc(-c3ccccc3)cc2)NC1=O [Compound 1280] ({CH2CO}-[Dap]Y(Carboxymethyl)DWL[Bip]V[Dab][dL]NLVSCG-NH2; thioether N-14),0.0097 µM
2,CC[C@H](C)[C@@H]1NC(=O)[C@H](Cc2ccc(-c3ccccc3)cc2)NC(=O)[C@H](C(C)C)NC(=O)[C@H](Cc2cccc(OC)c2)NC(=O)[C@H](CC(=O)O)NC(=O)[C@H](Cc2ccc(OCC(=O)O)cc2)NC(=O)[C@H](Cc2ccncc2)NC(=O)CSC[C@@H](C(=O)N[C@@H](C)C(N)=O)NC(=O)[C@H]([C@@H](C)O)NC(=O)[C@H](C(C)C)NC(=O)[C@H](CC(C)C)NC(=O)[C@H](CCN)NC(=O)[C@@H](CC(C)C)NC(=O)[C@H](CCCN)NC1=O [Compound 1187],0.0107 µM

# Same assay, conditions: Jurkat-PD-1 cells, PE-labeled PD-L1-Ig 20 nM final; read-out: Jurkat HPD1_PDL1 IC50
row,IC50,SMILES
1,0.0076 µM,Cc1cccc(C[C@@H]2NC(=O)[C@H](CC(=O)O)NC(=O)[C@H](Cc3ccc(C(=O)O)cc3)NC(=O)[C@H](Cc3ccncc3)NC(=O)CSC[C@@H](C(=O)N[C@@H](CO)C(N)=O)NC(=O)[C@H]([C@@H](C)O)NC(=O)[C@H](C(C)C)NC(=O)[C@H](CC3CCCCC3)NC(=O)[C@H](CCN)NC(=O)[C@@H](CC(C)C)NC(=O)[C@H](CCCN)NC(=O)[C@H](Cc3ccc(OCC(=O)O)cc3)NC(=O)[C@H](Cc3ccc(-c4ccccc4)cc3)NC(=O)[C@H](Cc3ccc(OCC(=O)O)cc3)NC2=O)c1 [Compound 2310] ({CH2CO}-[4Pal][Phe(4-COOH)]D[Phe(3-Me)]Y(Carboxymethyl)[Bip]Y(Carboxymethyl)[Orn][dL][Dab][Cha]VTCS-NH2; thioether N-14)
2,0.0269 µM,Cc1cccc(C[C@@H]2NC(=O)[C@H](CC(=O)O)NC(=O)[C@H](Cc3ccc(OCC(=O)O)cc3)NC(=O)[C@H](Cc3cccnc3)NC(=O)CSC[C@@H](C(N)=O)NC(=O)[C@H]([C@@H](C)O)NC(=O)[C@H](C(C)C)NC(=O)[C@H](CC(C)C)NC(=O)[C@H](CCN)NC(=O)[C@@H](CC(C)C)NC(=O)[C@H](CCCN)NC(=O)[C@H](C(C)C)NC(=O)[C@H](Cc3ccc(-c4ccccc4)cc3)NC(=O)[C@H](C(C)C)NC2=O)c1 [Compound 1553] ({CH2CO}-[3Pal]Y(Carboxymethyl)D[Phe(3-Me)]V[Bip]V[Orn][dL][Dab]LVTC-NH2; thioether N-14)
3,0.0024 µM,C#CC[C@H](NC(=O)[C@H](CCN)NC(=O)[C@@H]1CSCC(=O)N[C@@H](CC(C)C)C(=O)N[C@@H](Cc2ccc(C(=O)O)cc2)C(=O)N[C@@H](CC(=O)O)C(=O)N[C@@H](Cc2cccc(C)c2)C(=O)N[C@@H](Cc2ccc(C(=O)O)cc2)C(=O)N[C@@H](Cc2ccc(-c3ccccc3)cc2)C(=O)N[C@@H](Cc2ccc(C(=O)O)cc2)C(=O)N[C@@H](CCCN)C(=O)N[C@H](CC(C)C)C(=O)N[C@@H](CCN)C(=O)N[C@@H](CC2CCCCC2)C(=O)N[C@@H](C(C)C)C(=O)N[C@@H](CCC(=O)O)C(=O)N1)C(=O)O [Compound 2706] ({CH2CO}-L[Phe(4-COOH)]D[Phe(3-Me)][Phe(4-COOH)][Bip][Phe(4-COOH)][Orn][dL][Dab][Cha]VEC[Dab][Pra]-OH; thioether N-14)
4,0.0124 µM,CC(C)C[C@@H]1NC(=O)[C@H](Cc2c[nH]c3ccccc23)NC(=O)[C@H](CC(=O)O)NC(=O)[C@H](Cc2ccc(O)cc2)NC(=O)[C@H](Cc2ccccc2)NC(=O)CSC[C@@H](C(=O)N[C@@H](C)C(N)=O)NC(=O)[C@H]([C@@H](C)O)NC(=O)[C@H](C(C)C)NC(=O)[C@H](CC(C)C)NC(=O)[C@H](CCN)NC(=O)[C@@H](CC(C)C)NC(=O)[C@H](CCN)NC(=O)[C@H](C(C)C)NC(=O)[C@H](Cc2ccc(-c3ccccc3)cc2)NC1=O [Compound 1062] ({CH2CO}-FYDWL[Bip]V[Dab][dL][Dab]LVTCA-NH2; thioether N-14)
5,0.0118 µM,Cc1cccc(C[C@@H]2NC(=O)[C@H](CC(=O)O)NC(=O)[C@H](Cc3ccc(OCC(=O)O)cc3)NC(=O)[C@H](CN)NC(=O)CSC[C@@H](C(=O)NCC(N)=O)NC(=O)[C@H]([C@@H](C)O)NC(=O)[C@H](C(C)C)NC(=O)[C@H](CC3CCCCC3)NC(=O)[C@H](CCN)NC(=O)[C@@H](CC(C)C)NC(=O)[C@H](CCCN)NC(=O)[C@H](CCCNC(N)=O)NC(=O)[C@H](Cc3ccc(-c4ccccc4)cc3)NC(=O)[C@H](C(C)C)NC2=O)c1 [Compound 2255] ({CH2CO}-[Dap]Y(Carboxymethyl)D[Phe(3-Me)]V[Bip][Cit][Orn][dL][Dab][Cha]VTCG-NH2; thioether N-14)
6,0.0047 µM,Cc1cccc(C[C@@H]2NC(=O)[C@H](CC(=O)O)NC(=O)[C@H](Cc3ccc(OCC(=O)O)cc3)NC(=O)[C@H](C(C)O)NC(=O)CSC[C@@H](C(=O)N[C@@H](CCN)C(N)=O)NC(=O)[C@H](CO)NC(=O)[C@H](C(C)(C)O)NC(=O)[C@H](CC3CCCCC3)NC(=O)[C@H](CCN)NC(=O)[C@@H](CC(C)C)NC(=O)[C@H](CCCN)NC(=O)[C@H](Cc3ccc(OCC(=O)O)cc3)NC(=O)[C@H](Cc3ccc(-c4ccccc4)cc3)NC(=O)[C@H](Cc3ccc(C(=O)O)cc3)NC2=O)c1 (stereo partly drawn) [Compound 2634] ({CH2CO}-[Thr(3ξ)]Y(Carboxymethyl)D[Phe(3-Me)][Phe(4-COOH)][Bip]Y(Carboxymethyl)[Orn][dL][Dab][Cha][Val(3-OH)]SC[Dab]-NH2; thioether N-14)
7,0.0583 µM,CCCC[C@@H]1NC(=O)[C@H](CCN)NC(=O)[C@@H](CC(C)C)NC(=O)[C@H](CCCN)NC(=O)[C@H](CCCNC(N)=O)NC(=O)[C@H](Cc2ccc(-c3ccccc3)cc2)NC(=O)[C@H](C(C)C)NC(=O)[C@H](Cc2c[nH]c3ccccc23)NC(=O)[C@H](CC(=O)O)NC(=O)[C@H](Cc2ccc(O)cc2)NC(=O)[C@H](Cc2ccc(OCC(=O)O)cc2)NC(=O)CSC[C@@H](C(=O)N[C@@H](C)C(N)=O)NC(=O)[C@H]([C@@H](C)O)NC(=O)[C@H](C(C)C)NC1=O [Compound 1166] ({CH2CO}-Y(Carboxymethyl)YDWV[Bip][Cit][Orn][dL][Dab][Nle]VTCA-NH2; thioether N-14)
8,0.0147 µM,Cc1cccc(C[C@@H]2NC(=O)[C@H](CC(=O)O)NC(=O)[C@H](Cc3ccc(C(=O)O)cc3)NC(=O)[C@H](CN)NC(=O)CSC[C@@H](C(=O)N[C@@H](CCN)C(N)=O)NC(=O)[C@@H](CN)NC(=O)[C@H](C(C)C)NC(=O)[C@H](CC3CCCCC3)NC(=O)[C@H](CCN)NC(=O)[C@@H](CC(C)C)NC(=O)[C@H](CCCN)NC(=O)[C@H](C(C)C)NC(=O)[C@H](Cc3ccc(-c4ccccc4)cc3)NC(=O)[C@H](C(C)C)NC2=O)c1 [Compound 2030] ({CH2CO}-[Dap][Phe(4-COOH)]D[Phe(3-Me)]V[Bip]V[Orn][dL][Dab][Cha]V[dDap]C[Dab]-NH2; thioether N-14)
9,0.0088 µM,CC(C)C[C@H]1NC(=O)[C@H](CN)NC(=O)[C@H](C(C)C)NC(=O)[C@H](Cc2ccc(-c3ccccc3)cc2)NC(=O)[C@H](C(C)C)NC(=O)[C@H](Cc2c[nH]c3ccccc23)NC(=O)[C@H](CC(=O)O)NC(=O)[C@H](Cc2ccc(C(=O)O)cc2)NC(=O)[C@H](Cc2ccc(OCC(=O)O)cc2)NC(=O)CSC[C@@H](C(=O)NCC(N)=O)NC(=O)[C@H](CO)NC(=O)[C@H](C(C)C)NC(=O)[C@H](CC2CCCCC2)NC(=O)[C@H](CC(N)=O)NC1=O [Compound 1413] ({CH2CO}-Y(Carboxymethyl)[Phe(4-COOH)]DWV[Bip]V[Dap][dL]N[Cha]VSCG-NH2; thioether N-14)
